Laboratory results as given in EP0931077B1, “SUBSTITUTED BENZOCYCLOHEPTAPYRIDINE USEFUL AS INHIBITORS OF FARNESYL-PROTEIN TRANSFERASE” (SCHERING CORPORATION, priority 1996, dated 1998).

Molecular target: farnesyl-protein transferase (Homo sapiens, UniProt P49354+P49356)
Assay: FPT inhibition (in vitro farnesyl protein transferase inhibition)
Assay type: biochemical

| Structure (SMILES) | IC50 | further results |
| --- | --- | --- |
| O=C(NCc1cccnc1)[C@@H]1CCCN1C1c2ccc(Cl)cc2CCc2cc(Br)cnc21 (single isomer, unassigned) [Example 1 Isomer A, 1-(3-Brorno-8-chloro-6,11-dihydro-5H-benzo[5,6]cyclohepta[1,2-b]pyridine-11-yl)-N-(3-pyridinylmethyl)2-pyrrolidine carboxamide] | 59 nM |  |
| O=C(NCc1cccnc1)[C@@H]1CCCN1C1c2ccc(Cl)cc2CCc2cc(Br)cnc21 (single isomer, unassigned) [Example 1 Isomer B, 1-(3-Brorno-8-chloro-6,11-dihydro-5H-benzo[5,6]cyclohepta[1,2-b]pyridine-11-yl)-N-(3-pyridinylmethyl)2-pyrrolidine carboxamide] | 140 nM |  |
| O=C(NCc1cccnc1)C1CCCN1C1c2ncc(Br)cc2CCc2cc(Cl)cc(Br)c21 (single isomer, unassigned) [Example 2 Isomer A, 1-(3,10-dibromo-8-chloro-6,11-dihydro-5H-benzo[5,6]cyclohepta[1,2-b]pyridine-11-yl)-N-(3-pyridinylmethyl)-2-pyrrolidine carboxamide] |  | inhibition at 0.3 µM (@ 0.3 µM): 15% |
| O=C(NCc1cccnc1)C1CCCN1C1c2ncc(Br)cc2CCc2cc(Cl)cc(Br)c21 (single isomer, unassigned) [Example 2 Isomer B, 1-(3,10-dibromo-8-chloro-6,11-dihydro-5H-benzo[5,6]cyclohepta[1,2-b]pyridine-11-yl)-N-(3-pyridinylmethyl)-2-pyrrolidine carboxamide] | 5.2 nM |  |
| O=C(NCc1cccnc1)C1CCN1C1c2ccc(Cl)cc2CCc2cc(Br)cnc21 (single isomer, unassigned) [Example 3 Isomer A, 1-(3-bromo-8-chloro-6,11-dihydro-5H-benzo[5,6]cyclohepta[1,2-b]pyridine-11-yl)-N-(3-pyridinylmethyl)2-azetidine carboxamide] | 1050 nM |  |
| O=C(NCc1cccnc1)C1CCN1C1c2ccc(Cl)cc2CCc2cc(Br)cnc21 (single isomer, unassigned) [Example 3 Isomer B, 1-(3-bromo-8-chloro-6,11-dihydro-5H-benzo[5,6]cyclohepta[1,2-b]pyridine-11-yl)-N-(3-pyridinylmethyl)2-azetidine carboxamide] |  | inhibition at 0.1 µM (@0.1 µM): 17% |
